Results reported in patent US12692253B2, “Antimicrobial compounds and methods” (Curza Global, LLC, priority 2019, dated 2026).

Assays:
[1] = tested on: E. coli S30 extract (bacterial protein synthesis); experiment: E. coli S30 extract coupled transcription-translation luciferase assay (inhibition of bacterial protein synthesis); type: biochemical; details: % inhibition @ 1 μM, read-out: S30 IC50 (μM/% inhib.)
Method in brief: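 Coupled transcription-translation in E. coli S30 circular-DNA extract expressing luciferase from pBESTluc, with 8-point 2-fold compound dilutions; 1 hour at 37 °C, stopped at 4 °C. Luminescence read; % inhibition versus no-inhibitor wells, no-DNA wells as background.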

[2] = tested on: S. aureus (Sa); experiment: Broth microdilution minimum inhibitory concentration (MIC), CLSI; type: cell-based; details: growth medium with sodium bicarbonate; for MIC: Staphylococcus aureus, read-out: Sa + bicarb MIC
Method in brief: (§1)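 Bacteria grown at 35±2 °C to 0.5 McFarland turbidity were added at 5×10^4 CFU/well to triplicate two-fold compound series (8 dilutions). Media were cation-adjusted Mueller-Hinton broth alone or with sodium bicarbonate (6.25 or 25 mM final) or heat-inactivated human serum (0–50%), per modified CLSI method.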

[3] = tested on: A. baumannn (Ab); experiment: as above; type: cell-based; details: A. baumannn, growth medium with sodium bicarbonate; for MIC: read-out: Ab + bicarb MIC
Method in brief: as §1

[4] = tested on: E. coli (Ec); experiment: as above; type: cell-based; details: growth medium with sodium bicarbonate; for MIC: Escherichia coli, read-out: E. coli + bicarb MIC
Method in brief: as §1

[5] = tested on: E. faecalis (Ef); experiment: as above; type: cell-based; details: growth medium with sodium bicarbonate; for MIC: Enterococcus faecalis, read-out: Ef + bicarb MIC
Method in brief: as §1

[6] = tested on: P. aeruginosa (Pa); experiment: as above; type: cell-based; details: growth medium with sodium bicarbonate; for MIC: Pseudomonas aeruginosa, read-out: Pa MIC + bicarb
Method in brief: as §1

[7] = molecular target: Rabbit Reticulocyte Lysate (eukaryotic protein synthesis); experiment: Rabbit reticulocyte lysate luciferase assay (inhibition of eukaryotic protein synthesis); type: biochemical; details: % inhibition @ 1 μM, read-out: Rabbit reticulocyte IC50 (μM/% inhib.)
Method in brief: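 In vitro translation of luciferase control RNA in nuclease-treated rabbit reticulocyte lysate with amino acid mixture, compounds in 2-fold serial dilution, 90 minutes at 30° C. Luminescence read after luciferase reagent; % inhibition relative to water no-inhibitor controls, with no-RNA background wells.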

Row | SMILES | IC50 [1] [µM] | MIC [2] [mg/L] | MIC [3] [mg/L] | MIC [4] [mg/L] | MIC [5] [mg/L] | MIC [6] [mg/L] | IC50 [7] [µM] | Sa + bicarb MIC [2] | Ab + bicarb MIC [3] | E. coli + bicarb MIC [4] | Ef + bicarb MIC [5] | Pa MIC + bicarb [6]
1 | CNCC(=O)N1CCN(C(=O)Nc2ccn(-c3ccc(CC(C)N4C[C@@H]5[C@@H](CN)[C@@H]5C4)cc3)c(=O)n2)CC1 (stereo partly shown) [Compound 236] | ≥ 1 | 8 to 32 | > 32 | < 8 | > 32 | > 32 | ≥ 1 | – | – | – | – | –
2 | CC(Cc1ccc(-n2ccc(NC(=O)N3CCN(C(=O)C(C)(C)N)CC3)nc2=O)cc1)N1CCC2(CC1)CC2CN (stereo not shown) [Compound 237] | ≥ 1 | > 32 | > 32 | < 8 | > 32 | > 32 | ≥ 1 | – | – | – | – | –
3 | CC(Cc1ccc(-n2ccc(NC(=O)N3CCN(C(=O)C(C)(C)N)CC3)nc2=O)cc1)N1CCC2(CC(N)C2)C1 (stereo not shown) [Compound 238] | 0.5 to 1 | – | – | – | – | – | ≥ 1 | ++ (An MIC value (μg/mL) that is 8 μg/mL or greater and less than 32 μg/mL) | + (An MIC (μg/mL) value that is 32 μg/mL or greater) | +++ (An MIC value (μg/mL) that is less than 8 μg/mL) | + (An MIC (μg/mL) value that is 32 μg/mL or greater) | + (An MIC (μg/mL) value that is 32 μg/mL or greater)
4 | CC(Cc1ccc(-n2ccc(NC(=O)N3CCN(C(=O)C(N)CCCN)CC3)nc2=O)cc1)N1C[C@@H]2[C@@H](CN)[C@@H]2C1 (stereo partly shown) [Compound 239] | < 0.5 | 8 to 32 | > 32 | < 8 | > 32 | > 32 | ≥ 1 | – | – | – | – | –
5 | CC(Cc1ccc(-n2ccc(NC(=O)N3CCN(C(=O)[C@@H](N)CCCCN)CC3)nc2=O)cc1)N1C[C@@H]2[C@@H](CN)[C@@H]2C1 (stereo partly shown) [Compound 240] | < 0.5 | 8 to 32 | > 32 | < 8 | > 32 | > 32 | ≥ 1 | – | – | – | – | –
6 | CC(Cc1ccc(-n2ccc(NC(=O)N3CCN(C(=O)C(C)(C)NCS(=O)(=O)O)CC3)nc2=O)cc1)N1C[C@@H]2[C@@H](CNCS(=O)(=O)O)[C@@H]2C1 (stereo partly shown) [Compound 241] | < 0.5 | < 8 | > 32 | < 8 | 8 to 32 | > 32 | ≥ 1 | – | – | – | – | –
7 | CC(Cc1ccc(-n2ccc(NC(=O)N3CCN(C(=O)C(C)(C)N)CC3)nc2=O)cc1)N1CC2CCC(N)CC2C1 (stereo not shown) [Compound 242] | 0.5 to 1 | – | – | – | – | – | ≥ 1 | ++ (An MIC value (μg/mL) that is 8 μg/mL or greater and less than 32 μg/mL) | + (An MIC (μg/mL) value that is 32 μg/mL or greater) | +++ (An MIC value (μg/mL) that is less than 8 μg/mL) | + (An MIC (μg/mL) value that is 32 μg/mL or greater) | + (An MIC (μg/mL) value that is 32 μg/mL or greater)
8 | CC(Cc1ccc(-n2ccc(NC(=O)N3CCN(C(=O)C(C)(C)N)CC3)nc2=O)cc1)N1CC2CCC(N)CC2C1 (stereo not shown) [Compound 243] | 0.5 to 1 | – | – | – | – | – | ≥ 1 | ++ (An MIC value (μg/mL) that is 8 μg/mL or greater and less than 32 μg/mL) | + (An MIC (μg/mL) value that is 32 μg/mL or greater) | +++ (An MIC value (μg/mL) that is less than 8 μg/mL) | + (An MIC (μg/mL) value that is 32 μg/mL or greater) | + (An MIC (μg/mL) value that is 32 μg/mL or greater)
9 | CCC(Cc1ccc(-n2ccc(NC(=O)N3CCN(C(=O)C(C)(C)N)CC3)nc2=O)cc1)N1CC2CCC(N)CC2C1 (stereo not shown) [Compound 244] | 0.5 to 1 | – | – | – | – | – | ≥ 1 | +++ (An MIC value (μg/mL) that is less than 8 μg/mL) | + (An MIC (μg/mL) value that is 32 μg/mL or greater) | +++ (An MIC value (μg/mL) that is less than 8 μg/mL) | ++ (An MIC value (μg/mL) that is 8 μg/mL or greater and less than 32 μg/mL) | + (An MIC (μg/mL) value that is 32 μg/mL or greater)
10 | CCC(Cc1ccc(-n2ccc(NC(=O)N3CCN(C(=O)C(C)(C)N)CC3)nc2=O)cc1)N1CC2CCC(N)CC2C1 (stereo not shown) [Compound 245] | 0.5 to 1 | – | – | – | – | – | ≥ 1 | ++ (An MIC value (μg/mL) that is 8 μg/mL or greater and less than 32 μg/mL) | + (An MIC (μg/mL) value that is 32 μg/mL or greater) | +++ (An MIC value (μg/mL) that is less than 8 μg/mL) | + (An MIC (μg/mL) value that is 32 μg/mL or greater) | + (An MIC (μg/mL) value that is 32 μg/mL or greater)
